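Where inhibition never reached the appropriate level, the endpoint shown equals the highest concentration tested. Otherwise, values were interpolated linearly from a five-concentration, 48-hour dose response in 96-well plates. At the GI50, growth is halved. TGI: total growth inhibition.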
Legend:
Assay in all cases: DTP human tumour cell line panel, 48 h
MALME-3M melanoma = tested on: MALME-3M melanoma
SK-MEL-5 melanoma = tested on: SK-MEL-5 melanoma
SK-MEL-28 melanoma = tested on: SK-MEL-28 melanoma
T-47D breast = tested on: T-47D breast
SR leukemia = tested on: SR leukemia
HOP-62 NSCLC = tested on: HOP-62 NSCLC
M14 melanoma = tested on: M14 melanoma
TK-10 renal = tested on: TK-10 renal
ACHN renal = tested on: ACHN renal
K-562 leukemia = tested on: K-562 leukemia

SMILES	GI50 (MALME-3M melanoma) [µM]	TGI (MALME-3M melanoma) [µM]	GI50 (SK-MEL-5 melanoma) [µM]	TGI (SK-MEL-5 melanoma) [µM]	GI50 (SK-MEL-28 melanoma) [µM]	TGI (SK-MEL-28 melanoma) [µM]	GI50 (T-47D breast) [µM]	TGI (T-47D breast) [µM]	GI50 (SR leukemia) [µM]	TGI (SR leukemia) [µM]	GI50 (HOP-62 NSCLC) [µM]	TGI (HOP-62 NSCLC) [µM]	GI50 (M14 melanoma) [µM]	TGI (M14 melanoma) [µM]	GI50 (TK-10 renal) [µM]	TGI (TK-10 renal) [µM]	GI50 (ACHN renal) [µM]	TGI (ACHN renal) [µM]	GI50 (K-562 leukemia) [µM]	TGI (K-562 leukemia) [µM]
Cc1ccc(S(=O)(=O)n2cc([C@@]3(O)C[C@H](CSC#N)OC3=O)c3ccccc32)cc1	12.1	35.2	2.44	19.8	14	27.7	12.8	32.5	0.41	4.76	25.1	57.4	7.94	35.9	16.3	37.8	11.2	27.1	6.2	23.6
NC(N)=NC(N)=Nc1ccc(C(=O)O)cc1	–	> 100	–	> 100	–	> 100	–	> 100	–	> 100	–	> 100	–	> 100	–	> 100	–	> 100	–	> 100
COc1ccc(Nc2ncnc3ccc(-c4cncc(NS(C)(=O)=O)c4)cc23)cc1Cl	1.55	11.2	1.61	3.21	2.75	18.4	0.177	1.61	1.42	5.86	2.64	22.6	2.81	13.6	–	–	4.92	> 100	3.2	18.7
C=C(C)[C@@H]1CCc2c(O)c(O)c(=O)cc(C)c2C1	–	35	–	3.49	–	> 77.2	–	23.7	–	> 20.3	–	–	–	> 100	–	43.7	–	14.1	–	> 27.6
C=C(C(=O)OC)[C@@H]1CC2OC1C(=O)C(C)CCC/C(C)=C/CC[C@@]2(C)O (stereo not given in full)	10.9	31.1	37	> 100	25.5	77.3	59.8	> 100	5.1	25.1	20.6	41.2	15.8	29.2	20.8	71.1	18.6	42.6	18.9	43.4
CC(C)C1(NC(=O)C2CC3c4cccc5[nH]cc(c45)CC3N(C)C2)OC2(O)C3CCCN3C(=O)C(Cc3ccccc3)N2C1=O (stereo not given)	–	–	–	> 100	–	> 100	–	> 100	–	41.2	–	> 100	–	> 100	–	> 100	–	> 100	–	–
O=C(O)COc1ccc(OCC(=O)O)cc1	0.571	10.5	0.362	2.31	3.36	17	0.449	9.31	0.0614	12.7	0.408	8.53	0.847	12.3	–	–	0.522	4.02	2.49	16.6
O=C1C=CC(=O)c2c1ccc1c3ccccc3n(Cc3ccccc3)c21	–	30.8	–	> 90	–	54	–	64.6	–	> 28.7	–	> 100	–	42	–	35.1	–	35.4	–	10.6
C=CC1C(CC2OC(CO)C(O)C(O)C2O)OC=C2C(=O)OCCC21O (stereo not given)	17.8	51	15.7	37.5	0.116	19.2	32	> 100	3.32	26.5	13.4	35.5	22.3	65.7	26	90.3	29.8	> 100	6.6	> 100
NC1=NC(SCc2ccccc2CCl)c2ncn(Cc3ccccc3CCl)c2N1 (stereo not given)	1.44	3.2	1.71	3.25	2.28	6.97	1.54	3.34	1.56	6.46	1.53	3.16	–	–	3.29	11.9	2.07	5.45	2.35	10.2
CC(C)=Cc1cc(C)c2ccc(C)c3c2c1C(C)=C(O)C3=O	34.9	> 100	15.3	28.9	0.933	> 100	16.9	52.8	1.46	4.17	28.4	61.7	20.1	45.7	44.6	> 100	> 100	> 100	10.3	24.7
O=C1NC(=O)C(=Cc2cn(Cc3ccccc3)c3ccccc23)C(=O)N1	18.1	45.7	11.3	> 55.5	15	30.6	4.09	20	10.6	30.5	15.2	37.7	17.9	44.4	2.16	8.58	19.8	53.9	4.23	> 48.6
Cc1cc(=O)[nH]c(N/N=C/c2ccccc2O)n1	4.49	> 100	4.19	19.1	25.3	> 100	3.74	> 100	6.22	> 100	19	> 100	3.56	26.3	–	–	7.39	> 100	5.82	> 100
CC(=O)c1c[nH]c2ccc(-c3ccnc(Nc4ccc(NC(=O)C5CCCC5)c(CN5CCOCC5)c4)n3)cc12	0.0431	0.151	0.0246	0.0685	0.0404	0.27	0.0379	–	–	–	0.0403	3.52	0.0274	0.0955	0.0274	0.406	0.0305	–	0.041	> 100
